Results reported in patent US20100125059A1, “1-BIARYLAZETIDINONE DERIVATIVE” (Teijin Pharma Limited, priority 2007, published 2010).
Where two headings read alike, the source gives them in different places.

System: hamsters fed a high cholesterol diet
Assay: Measurement of lipid lowering effect in hamsters fed a high cholesterol diet
Format: in vivo, Male Golden Syrian hamsters
Settings: Mesocricetus auratus, po, 168 h, gavage once daily, 7 days
Procedure: Male Golden Syrian hamsters are divided into groups each consisting of 6 animals and fed a controlled high cholesterol diet (CE-2 containing 0.5% cholesterol; CLEA Japan, Inc.) for 28 days at most. From the start of feeding of the high cholesterol diet, the test compounds are administered by gavage once daily. For the administration, 0.2 mL of corn oil alone per 100 g (control group) or a solution (or suspension) of the test compound in corn oil at a dose of 0.01 to 10 mg/kg was given. At the same time, a group fed with a normal diet during the same study period is handled as a normal group. 4 hours after the last administration, whole blood is collected from the abdominal aorta under light anesthesia with ether and serum is separated from the blood. Further, livers are harvested, wet liver weights are measured, and part (about 0.5 g) of the harvested livers are extracted and weighed. 2-propanol in an amount 4 times the weight of the extracted livers are added, the resulted mixtures are homogenized, and the centrifuged supernatant are recovered and used as liver-derived samples.
Serum and liver TC concentrations are determined by an enzyme method using L-type Wako CHO•H (Wako Pure Chemical Industries Ltd.) or Cholestest CHO (Daiichi Pure Chemicals Co., Ltd.). Serum TG concentrations are determined by an enzyme method using L-type Wako TG•H (Wako Pure Chemical Industries Ltd.) or Autosera S TG-N (Daiichi Pure Chemicals Co., Ltd.) and a free glycerine elimination method. LDL-C concentrations are determined by a direct method using L-type Wako LDL-C•M (Wako Pure Chemical Industries Ltd.) or Cholestest LDL (Daiichi Pure Chemicals Co., Ltd.). Human serum was commonly used as a sample for the calibration curve for determinations of serum and liver TC concentrations, serum TG concentration, and serum LDL-C concentration. The effect of the test compound is shown by a suppression rate (%) of an increase in serum TC concentration due to feeding of the high cholesterol diet, a serum TG lowering rate (%), a suppression rate (%) of an increase in serum LDL-C concentration due to feeding of the high cholesterol diet, and a suppression rate (%) of an increase in liver TC concentration due to feeding of the high cholesterol diet calculated in accordance with the following equations.
In the Equation 2, A is the control group, B is the test compound group, and C is the normal group.
In the Equation 3, A is the control group, B is the test compound group, and C is the normal group.
In the Equation 4, A is the control group, B is the test compound group, and C is the normal group.
In the Equation 5, A is the control group, and B is the test compound group.
The following results were obtained from the study by this method on the effects of lowering serum TC, LDL-C, and TG, and liver TC in the hamsters fed with a high cholesterol diet which were given the test compounds for 7 days.
The compounds in which pyridyl of compound of example 51 and 55 was exchanged for phenyl, were used as comparative compound 1 and 2, respectively. In the same method as Example 112, the suppression rate (%) of an increase in serum TC concentration of comparative compound 1 and 2 were calculated.

[1] = read-out: liver TC lowering effect (suppression rate of an increase in liver TC concentration)
[2] = read-out: serum TC lowering effect (suppression rate of an increase in serum TC concentration)
[3] = read-out: serum TG lowering effect (serum TG lowering rate)
[4] = read-out: serum LDL-C lowering effect (suppression rate of an increase in serum LDL-C concentration)

Structure (SMILES) | inhibition in vivo at 0.1 mg/kg [3] [%] | inhibition in vivo at 0.1 mg/kg [2] [%] | inhibition in vivo at 0.1 mg/kg [4] [%] | also measured
O=C1[C@H](SC[C@H](O)c2ccc(F)cc2)[C@@H](c2ccc(O)cc2O)N1c1ccc(-c2cccnc2)cc1 [Example 2, (3R,4R)-3-[(2R)-2-(4-fluorophenyl)-2-hydroxyethylthio]-4-(2,4-dihydroxyphenyl)-1-[4-(pyridin-3-yl)phenyl]azetidin-2-one] |  |  |  | inhibition in vivo at 0.01 mg/kg [1]: ≥ 30%; inhibition in vivo at 0.01 mg/kg [2]: ≥ 30%
O=C1[C@H](SC[C@H](O)c2ccc(F)cc2)[C@@H](c2ccc(O)cc2)N1c1ccc(-c2ccc(C(F)(F)F)cn2)cc1 [Example 3, (3R,4R)-3-[(2R)-2-(4-fluorophenyl)-2-hydroxyethylthio]-4-(4-hydroxyphenyl)-1-[4-(5-trifluoromethylpyridin-2-yl)phenyl]azetidin-2-one] | ≥ 20 |  |  | 
O=C1[C@H](SC[C@H](O)c2ccc(F)cc2)[C@@H](c2ccc(O)cc2)N1c1ccc(-c2cncnc2)cc1 [Example 10, (3R,4R)-3-[(2R)-2-(4-fluorophenyl)-2-hydroxyethylthio]-4-(4-hydroxyphenyl)-1-[4-(pyrimidin-5-yl)phenyl]azetidin-2-one] | ≥ 20 | ≥ 50 |  | 
N#Cc1cncc(-c2ccc(N3C(=O)[C@H](SC[C@H](O)c4ccc(F)cc4)[C@H]3c3ccc(O)cc3)cc2)c1 [Example 18, 5-(4-{(3R,4R)-3-[(2R)-2-(4-fluorophenyl)-2-hydroxyethylthio]-4-(4-hydroxyphenyl)-2-oxoazetidinyl}phenyl)pyridine-3-carbonitrile] | ≥ 20 |  | ≥ 50 | inhibition in vivo at 0.01 mg/kg [2]: ≥ 30%
O=C(CS[C@H]1C(=O)N(c2ccc(-c3cccnc3)cc2)[C@@H]1c1ccc(O)cc1)c1ccc(F)cc1 [Example 27, (3R,4R)-3-[2-(4-fluorophenyl)-2-oxoethylthio]-4-(4-hydroxyphenyl)-1-[4-(pyridin-3-yl)phenyl]azetidin-2-one] |  | ≥ 50 | ≥ 50 | 
O=C1[C@H](SC[C@H](O)c2ccc(F)cc2F)[C@@H](c2ccc(O)cc2)N1c1ccc(-c2cccnc2)cc1 [Example 30, (3R,4R)-3-[(2R)-2-(2,4-difluorophenyl)-2-hydroxyethylthio]-4-(4-hydroxyphenyl)-1-[4-(pyridin-3-yl)phenyl]azetidin-2-one] |  | ≥ 50 | ≥ 50 | inhibition in vivo at 0.1 mg/kg [1]: ≥ 50%
O=C1[C@H](SC[C@H](O)c2ccc3c(c2)OCO3)[C@@H](c2ccc(O)cc2)N1c1ccc(-c2cccnc2)cc1 [Example 33, (3R,4R)-3-[(2R)-2-(2H-benzo[3,4-d]1,3-dioxolen-5-yl)-2-hydroxyethylthio]-4-(4-hydroxyphenyl)-1-[4-(pyridin-3-yl)phenyl]azetidin-2-one] |  | ≥ 50 | ≥ 50 | 
O=C1[C@H](SC[C@H](O)c2ccc(F)cc2)[C@@H](c2ccc(O)c([N+](=O)[O-])c2)N1c1ccc(-c2cccnc2)cc1 [Example 42, (3R,4R)-3-[(2R)-2-(4-fluorophenyl)-2-hydroxyethylthio]-4-(4-hydroxy-3-nitrophenyl)-1-[4-(pyridin-3-yl)phenyl]azetidin-2-one] |  |  | ≥ 50 | 
O=C1[C@H](SC[C@H](O)c2ccc(Cl)s2)[C@@H](c2ccc(O)cc2)N1c1ccc(-c2cccnc2)cc1 [Example 46, (3R,4R)-3-[(2S)-2-(5-chlorothiophen-2-yl)-2-hydroxyethylthio]-4-(4-hydroxyphenyl)-1-[4-(pyridin-3-yl)phenyl]azetidin-2-one] | ≥ 20 |  |  | 
CCNC(=O)c1cncc(-c2ccc(N3C(=O)[C@H](SC[C@H](O)c4ccc(F)cc4)[C@H]3c3ccc(O)cc3)cc2)c1 [Example 49, N-ethyl-5-(4-{(3R,4R)-3-[(2R)-2-(4-fluorophenyl)-2-hydroxyethylthio]-4-(4-hydroxyphenyl)-2-oxoazetidinyl}phenyl)pyridine-3-carboxamide] | ≥ 20 | ≥ 50 | ≥ 50 | 
O=C1[C@H](SC[C@H](O)c2ccc(F)cc2)[C@@H](c2ccc(O)cc2)N1c1ccc(-c2cnccn2)cc1 [Example 53, (3R,4R)-3-[(2R)-2-(4-fluorophenyl)-2-hydroxyethylthio]-4-(4-hydroxyphenyl)-1-[4-(pyrazin-2-yl)phenyl]azetidin-2-one] |  |  | ≥ 50 | 
N#Cc1ccc(-c2ccc(N3C(=O)[C@H](SC[C@H](O)c4ccc(Cl)cc4)[C@H]3c3ccc(O)cc3)cc2)cn1 [Example 60, 5-(4-{(3R,4R)-3-[(2R)-2-(4-chlorophenyl)-2-hydroxyethylthio]-4-(4-hydroxyphenyl)-2-oxoazetidinyl}phenyl)pyridine-2-carbonitrile] | ≥ 20 |  | ≥ 50 | 
O=C1[C@H](SC[C@H](O)c2ccc(Cl)cc2)[C@@H](c2ccc(O)cc2O)N1c1ccc(-c2cccnc2)cc1 [Example 62, (3R,4R)-3-[(2R)-2-(4-chlorophenyl)-2-hydroxyethylthio]-4-(2,4-dihydroxyphenyl)-1-[4-(pyridin-3-yl)phenyl]azetidin-2-one] |  | ≥ 50 | ≥ 50 | 
N#Cc1cncc(-c2ccc(N3C(=O)[C@H](SC[C@H](O)c4ccc(F)cc4)[C@H]3c3ccc(O)cc3O)cc2)c1 [Example 63, 5-(4-{(3R,4R)-3-[(2R)-2-(4-fluorophenyl)-2-hydroxyethylthio]-4-(2,4-dihydroxyphenyl)-2-oxoazetidinyl}phenyl)pyridine-3-carbonitrile] |  | ≥ 50 | ≥ 50 | inhibition in vivo at 0.01 mg/kg [1]: ≥ 30%; inhibition in vivo at 0.01 mg/kg [4]: ≥ 30%; inhibition in vivo at 0.01 mg/kg [2]: ≥ 30%
COc1ccncc1-c1ccc(N2C(=O)[C@H](SC[C@H](O)c3ccc(F)cc3)[C@H]2c2ccc(O)cc2O)cc1 [Example 64, (3R,4R)-3-[(2R)-2-(4-fluorophenyl)-2-hydroxyethylthio]-4-(2,4-dihydroxyphenyl)-1-[4-(4-methoxypyridin-3-yl)phenyl]azetidin-2-one] |  | ≥ 50 | ≥ 50 | 
N#Cc1cncc(-c2ccc(N3C(=O)[C@H](SC[C@H](O)c4ccc(Cl)cc4)[C@H]3c3ccc(O)cc3O)cc2)c1 [Example 65, 5-(4-{(3R,4R)-3-[(2R)-2-(4-chlorophenyl)-2-hydroxyethylthio]-4-(2,4-dihydroxyphenyl)-2-oxoazetidinyl}phenyl)pyridine-3-carbonitrile] |  | ≥ 50 | ≥ 50 | 
O=Cc1cc(-c2ccc(N3C(=O)[C@H](SC[C@H](O)c4ccc(F)cc4)[C@H]3c3ccc(O)cc3)cc2)cs1 [Example 67, 4-(4-{(3R,4R)-3-[(2R)-2-(4-fluorophenyl)-2-hydroxyethylthio]-4-(4-hydroxyphenyl)-2-oxoazetidinyl}phenyl)thiophene-2-carbaldehyde] | ≥ 20 |  |  | 
Cc1cncc(-c2ccc(N3C(=O)[C@H](SC[C@H](O)c4ccc(F)cc4)[C@H]3c3ccc(O)cc3)cc2)c1 [Example 68, (3R,4R)-3-[(2R)-2-(4-fluorophenyl)-2-hydroxyethylthio]-4-(4-hydroxyphenyl)-1-[4-(5-methylpyridin-3-yl)phenyl]azetidin-2-one] |  |  | ≥ 50 | inhibition in vivo at 0.01 mg/kg [2]: ≥ 30%
O=C1[C@H](SC[C@H](O)c2ccc(Cl)cc2)[C@@H](c2ccc(O)cc2)N1c1ccc(-c2cncnc2)cc1 [Example 69, (3R,4R)-3-[(2R)-2-(4-chlorophenyl)-2-hydroxyethylthio]-4-(4-hydroxyphenyl)-1-[4-(pyrimidin-5-yl)phenyl]azetidin-2-one] |  |  |  | inhibition in vivo at 0.01 mg/kg [4]: ≥ 30%; inhibition in vivo at 0.01 mg/kg [2]: ≥ 30%
